Patent US20240050447A1 (Propella Therapeutics, Inc., priority 2020, published 2024)
Where “and” joins values, the source holds several entries; their conditions need not be identical. Identical values can stand only once. Like-named read-outs stand apart in the source and are kept apart here. Each block holds one compound with its values, some of them ahead of it.

Columns and labels:
in vivo [1] = conditions: Beagle, dog; for half-life: iv
in vivo [2] = conditions: male, cynomolgus monkey, plasma
in vivo [3] = conditions: male, rat, plasma
in vivo [4] = conditions: male, beagle, dog, plasma; for AUC(0-inf): dogs
[5] = PK of single IM abiraterone decanoate (and oral abiraterone acetate) in chemically castrated monkeys (Example 10); conditions: abiraterone in plasma
[6] = male, rat, in vivo, im
[7] = dog, in vivo
[8] = human
[9] = dogs (N=3); Group 2: IM 77 mg/kg abiraterone isocaproate, 158 mg/ml in 90% corn oil/10% benzyl alcohol; plasma analyte = label; mean
in vivo [10] = conditions: rat, plasma, intramuscular, 90 mg/kg
in vivo [11] = conditions: dog, plasma, intramuscular
in vivo [12] = conditions: monkey, plasma, intramuscular, 90 mg/kg
[13] = PK modelling and deconvolution of abiraterone plasma profiles, rats (Example 7D)
[14] = PK modelling and deconvolution of abiraterone plasma profiles, dogs (Example 7D)
[15] = PK modelling and deconvolution of abiraterone plasma profiles, monkeys (Example 7D)
[16] = Allometric scaling and prediction of plasma profile of abiraterone in man (Example 7D)
[17] = Plasma PK in rats after IM injection of abiraterone or abiraterone acetate formulations (Example 5A); conditions: male, rat, group mean
[18] = single IM 10 mg/kg, Geometric Mean (N=3)
[19] = single IM 10 mg/kg, Median (N=3)
[20] = single IM 10 mg/kg, individual animals
[21] = single IM 30 mg/kg, Geometric Mean (N=3)
[22] = single IM 30 mg/kg, Median (N=3)
[23] = single IM 30 mg/kg, individual animals
[24] = single IM 100 mg/kg, Mean (N=3)
[25] = single IM 100 mg/kg, Median (N=3)
[26] = single IM 100 mg/kg, individual animals
[27] = Group 3: IM abiraterone suspension in castor oil (62.5 mg/ml)
[28] = Group 4: IM abiraterone suspension, sodium phosphate buffer, 0.1% Tween (62.5 mg/ml)

Tmax (in vivo [1]; im, mean decanoate Tmax, range between the two IM formulations): 2.64 to 6.24 h
half-life (in vivo [1]; […]): 0.86 h
half-life (in vivo [2]; im, 90 mg/kg): 240 h
half-life (in vivo [2]; iv, […]): 2.27 h
half-life (in vivo [3]; im, 90 mg/kg): 792 h
half-life (in vivo [3]; iv, […]): 3.2 h
CL/F (in vivo [4]; im, 87 mg/kg): 207 mL/min/kg
Vd/F (in vivo [4]; im, 87 mg/kg): 2850 L/kg
half-life (in vivo [4]; im, 87 mg/kg): 161 h
AUC0-t [5, 18]: 196 ng·days/mL
AUC0-∞ [5, 18]: 209 ng·days/mL
AUC0-t ([5]; single IM 10 mg/kg, Max (N=3)): 225 ng·days/mL
AUC0-∞ ([5]; single IM 10 mg/kg, Max (N=3)): 236 ng·days/mL
AUC0-t ([5]; single IM 10 mg/kg, Mean (N=3)): 198 ng·days/mL
AUC0-∞ ([5]; single IM 10 mg/kg, Mean (N=3)): 212 ng·days/mL
AUC0-t [5, 19]: 212 ng·days/mL
AUC0-∞ [5, 19]: 235 ng·days/mL
AUC0-t ([5]; single IM 10 mg/kg, Min (N=3)): 157 ng·days/mL
AUC0-∞ ([5]; single IM 10 mg/kg, Min (N=3)): 166 ng·days/mL
AUC0-t [5, 21]: 330 ng·days/mL
AUC0-∞ [5, 21]: 347 ng·days/mL
AUC0-t ([5]; single IM 30 mg/kg, Max (N=3)): 449 ng·days/mL
AUC0-∞ ([5]; single IM 30 mg/kg, Max (N=3)): 492 ng·days/mL
AUC0-t ([5]; single IM 30 mg/kg, Mean (N=3)): 338 ng·days/mL
AUC0-∞ ([5]; single IM 30 mg/kg, Mean (N=3)): 358 ng·days/mL
AUC0-t [5, 22]: 285 ng·days/mL
AUC0-∞ [5, 22]: 293 ng·days/mL
AUC0-t ([5]; single IM 30 mg/kg, Min (N=3)): 281 ng·days/mL
AUC0-∞ ([5]; single IM 30 mg/kg, Min (N=3)): 290 ng·days/mL
AUC0-t ([5]; single IM 100 mg/kg, Max (N=3)): 1760 ng·days/mL
AUC0-∞ ([5]; single IM 100 mg/kg, Max (N=3)): 1770 ng·days/mL
AUC0-t [5, 24]: 1410 ng·days/mL
AUC0-∞ [5, 24]: 1430 ng·days/mL
AUC0-t [5, 25]: 1270 ng·days/mL
AUC0-∞ [5, 25]: 1330 ng·days/mL
AUC0-t ([5]; single IM 100 mg/kg, Min (N=3)): 1200 ng·days/mL
AUC0-∞ ([5]; single IM 100 mg/kg, Min (N=3)): 1200 ng·days/mL
SMILES: CCCCCCCCCC(=O)O[C@H]1CC[C@@]2(C)C(=CC[C@@H]3[C@@H]2CC[C@]2(C)C(c4cccnc4)=CC[C@@H]32)C1 [Abiraterone Decanoate, Abiraterone decanoate]
AUC0-t [5, 20]: 225 ng·days/mL and 157 ng·days/mL and 212 ng·days/mL
AUC0-∞ [5, 20]: 235 ng·days/mL and 166 ng·days/mL and 236 ng·days/mL
AUC0-t [5, 23]: 281 ng·days/mL and 285 ng·days/mL and 449 ng·days/mL
AUC0-∞ [5, 23]: 293 ng·days/mL and 290 ng·days/mL and 492 ng·days/mL
AUC0-t [5, 26]: 1270 ng·days/mL and 1200 ng·days/mL and 1760 ng·days/mL
AUC0-∞ [5, 26]: 1330 ng·days/mL and 1200 ng·days/mL and 1770 ng·days/mL

SMILES: CC(=O)O[C@H]1CC[C@@]2(C)C(=CC[C@@H]3[C@@H]2CC[C@]2(C)C(c4cccnc4)=CC[C@@H]32)C1 [Abiraterone acetate, (3β)-17-(3-Pyridyl)androsta-5, acetate]
Tmax [6]: 8.00 h
AUClast ([6]; 35 mg/kg): 934 ng·h/mL
Cmax ([6]; 35 mg/kg): 21.6 ng/mL
Tmax ([6]; 35 mg/kg): 39.2 h
injection site tolerability [7]: irritating to the dogs at the injection site
AUCINF ([7]; iv, 10 mg/kg): 5990 ng·h/mL
AUCINF/Dose ([7]; iv, 10 mg/kg): 599
AUClast ([7]; iv, 10 mg/kg): 5920 ng·h/mL
AUClast/Dose ([7]; iv, 10 mg/kg): 592
time out to which blood levels were measurable ([7]; male): 504 h

SMILES: C[C@]12CC[C@H](O)CC1=CC[C@@H]1[C@@H]2CC[C@]2(C)C(c3cccnc3)=CC[C@@H]12 [Abiraterone, (3β)-17-(pyridin-3-yl)androsta-5,16-dien-3-ol]
t1/2 (absorption half-life), predicted in man [8]: 325 h
AUCINF [9]: 275 ng·days/mL
AUClast [9]: 266 ng·days/mL
t1/2 [9]: 223 h
bioavailability (in vivo [1]; im, absolute bioavailability for abiraterone): 72%
AUC(0-inf) (in vivo [1]; im, mean abiraterone AUCINF after IM, corrected for dose and time units): 104 ng·h/mL
half-life (in vivo [1]; 1 mg/kg, mean t1/2): 2.1 h
half-life (in vivo [10]): 325 h
half-life (in vivo [11]): 319 h
half-life (in vivo [12]): 325 h
AUC(0-inf) (in vivo [4]; im, 60 mg/kg, mean abiraterone AUCINF after IM, corrected for dose and time units, 60 mg/kg IM administration (abiraterone decanoate)): 70.4 ng·h/mL
AUC(0-inf) (in vivo [4]; im, 60 mg/kg, mean abiraterone AUCINF after IM, corrected for dose and time units, 60 mg/kg IM administration of abiraterone isocaproate): 114 ng·h/mL
bioavailability (in vivo [4]; im, 77 mg/kg): 87%
half-life (in vivo [4]; im, 77 mg/kg, t1/2, dogs (N=3), Group 2: IM 77 mg/kg abiraterone isocaproate, 158 mg/ml in 90% corn oil/10% benzyl alcohol, plasma analyte = label, mean): 223 h
bioavailability (in vivo [4]; im, 87 mg/kg): 42%
AUC(0-inf) (in vivo [4]; iv, 0.78 mg/kg, mean abiraterone AUCINF after IV, corrected for dose, IV abiraterone isocaproate (0.78 mg/kg as abiraterone)): 131 ng·h/mL
F ([13]; Rats, IM bioavailability of abiraterone from abiraterone decanoate, deconvolution): 19%
Vd ([13]; rat, plasma, iv, […]): 22.3 L/kg
clearance ([13]; rat, plasma, iv, […]): 190 mL/min/kg
F ([14]; Dogs, IM bioavailability of abiraterone from abiraterone decanoate, deconvolution): 56%
Vd ([14]; dog, plasma, iv, […]): 14.2 L/kg
clearance ([14]; dog, plasma, iv, […]): 108 mL/min/kg
F ([15]; Monkeys, IM bioavailability of abiraterone from abiraterone decanoate, deconvolution): 14%
Vd ([15]; monkey, plasma, iv, […]): 5.73 L/kg
clearance ([15]; monkey, plasma, iv, […]): 43 mL/min/kg
Vss, predicted in man ([16]; allometric scaling from rats, dogs and monkeys): 437 L
K01, predicted in man ([16]; from deconvolution of animal IM/IV data): 0.00213 h⁻¹
F, predicted in man ([16]; value of dogs used): 56%
Cmax [17, 27]: 13.3 ng/mL
Cmax [17, 28]: 1.43 ng/mL
Tmax [17, 27]: 2.6 h
Tmax [17, 28]: 1.67 h

SMILES: CC(C)CCC(=O)O[C@H]1CC[C@@]2(C)C(=CC[C@@H]3[C@@H]2CC[C@]2(C)C(c4cccnc4)=CC[C@@H]32)C1 [Abiraterone Isocaproate, Abiraterone isocaproate]
Cmax [9]: 106 ng/mL
